Assay results from patent publication US20060014709A1, “Drug or cosmetic” (priority 2002, published 2006).
Read-outs that look alike come from different tables or passages of the source.

Test system: human peripheral blood T lymphocytes / cytotoxic macrophages
Type: cell-based
Description: Another embodiment of the method for screening a compound which can prevent, mitigate or treat renal glomerular lesions, lesions of pancreatic islets of Langerhans or epidermal lesions include a method for screening a compound in the presence of which a number of produced cytotoxic macrophages is decreased, comprising the steps of (i) inducing cytotoxic macrophages by cultivating human peripheral blood mononuclear cells in RPMI 1640 medium in the presence of lipopolysaccharide and human AB type serum; (ii) at the same time, inducing unfractionated T lymphocytes by cultivating human peripheral blood unfractionated T lymphocytes with or without lipopolysaccharide in the presence of the test compound; (iii) bringing the cytotoxic macrophages obtained in (i) into contact with monolayered autologous erythrocytes in the presence of the unfractionated T lymphocytes obtained in (ii), and measuring a number of produced cytotoxic macrophages; and (iv) comparing with the number of generated cytotoxic macrophages in the absence of the test compound (for convenience, referred to as screening method C).
(a) Induction of cytotoxic macrophages is described below. To 2×10^6PBMC floated on RPMI1640 medium containing human normal serum of type AB, 2 mM of L-glutamine and 5 μg/mL of gentamicin, LPS is added so as to make a concentration 80 μg/mL, and the PBMC is cultivated for 6 days at 37° C. under 5% CO2-95% air to induce cytotoxic macrophages. The PBMC is obtained similarly as in the screening method A. The induced cytotoxic macrophages are recovered from the medium. In the recovering, a known method may be used, including a method of collecting adhered materials with a rubber-policeman (rubber spatula). Then, the recovered cytotoxic macrophages may be washed. In washing, a Hanks solution with about 5 μg/mL of gentamicin is preferably used.
(b) Induction of unfractionated T lymphocytes is described below. First, human peripheral blood unfractionated T lymphocytes is separated as described below. As described in the screening method A, to a PBMC fraction separated by a specific gravity centrifugal method was added sheep erythrocytes treated with neuraminidase and reacted for 20 minutes at 37° C. This solution is gently added to a tube in which Percolls of discontinuous specific gravities are layered, and centrifuged at 400×g for 20 minutes at room temperature. In the layered Percolls of discontinuous specific gravities, fractions of rosetted T lymphocytes and monocytes floating on a layer of not less than d=1.091 are collected respectively. To the fraction of rosetted T lymphocytes is added ammonium chloride to hemolyze the sheep erythrocyte and a fraction of T lymphocytes is obtained. The fraction of monocytes obtained at the same time is washed. […]

O=C1CC[C@@](Sc2ccc(Cl)cc2)(C(=O)OCc2ccccc2)O1 (stereo in doubt) [compound (III-1), 2-(4-chlorophenyl)thio-5-oxo-2-tetrahydrofurancarboxylic acid benzyl ester]
induction of regulatory CD2^−CD4^+ T lymphocytes (in words): induces regulatory CD2^−CD4^+ T lymphocytes | Inhibition rate (%) of SPFC positive cells versus T lymphocytes treated with solvent (T lymphocytes treated with 0.1 μg/ml of compound): 69.2% | Inhibition rate (%) of SPFC positive cells versus T lymphocytes treated with solvent (T lymphocytes treated with 1 μg/ml of compound): 53.8% | Inhibition rate (%) of SPFC positive cells versus T lymphocytes treated with solvent (T lymphocytes treated with 10 μg/ml of compound): 92.3%
